Type in all cases: cell-based
One experiment addresses T1, Ba/F3 cells with EGFR WT (Homo sapiens, UniProt P00533).
T1 construct: expressed in transfected cells; host or cells: Ba/F3 (murine pro-B cells), retroviral transduction, puromycin selection, maintained with EGF
The experiment in a line: EGFR activity: Ba/F3 cell viability (CellTiter-Glo, 72 h), EGFR WT. The note with it: read-out: BaF3 WT IC50.

The target of experiment [1] is T2, Ba/F3 cells with EGFR exon 20 NPG Ins D770_N771 (Homo sapiens, UniProt P00533, INS770NPG).
T2 construct: expressed in transfected cells; host or cells: Ba/F3 (murine pro-B cells), retroviral transduction, puromycin selection, IL3-independent pool
T2 sequence (P00533 with tags, fused parts or gaps INS770NPG): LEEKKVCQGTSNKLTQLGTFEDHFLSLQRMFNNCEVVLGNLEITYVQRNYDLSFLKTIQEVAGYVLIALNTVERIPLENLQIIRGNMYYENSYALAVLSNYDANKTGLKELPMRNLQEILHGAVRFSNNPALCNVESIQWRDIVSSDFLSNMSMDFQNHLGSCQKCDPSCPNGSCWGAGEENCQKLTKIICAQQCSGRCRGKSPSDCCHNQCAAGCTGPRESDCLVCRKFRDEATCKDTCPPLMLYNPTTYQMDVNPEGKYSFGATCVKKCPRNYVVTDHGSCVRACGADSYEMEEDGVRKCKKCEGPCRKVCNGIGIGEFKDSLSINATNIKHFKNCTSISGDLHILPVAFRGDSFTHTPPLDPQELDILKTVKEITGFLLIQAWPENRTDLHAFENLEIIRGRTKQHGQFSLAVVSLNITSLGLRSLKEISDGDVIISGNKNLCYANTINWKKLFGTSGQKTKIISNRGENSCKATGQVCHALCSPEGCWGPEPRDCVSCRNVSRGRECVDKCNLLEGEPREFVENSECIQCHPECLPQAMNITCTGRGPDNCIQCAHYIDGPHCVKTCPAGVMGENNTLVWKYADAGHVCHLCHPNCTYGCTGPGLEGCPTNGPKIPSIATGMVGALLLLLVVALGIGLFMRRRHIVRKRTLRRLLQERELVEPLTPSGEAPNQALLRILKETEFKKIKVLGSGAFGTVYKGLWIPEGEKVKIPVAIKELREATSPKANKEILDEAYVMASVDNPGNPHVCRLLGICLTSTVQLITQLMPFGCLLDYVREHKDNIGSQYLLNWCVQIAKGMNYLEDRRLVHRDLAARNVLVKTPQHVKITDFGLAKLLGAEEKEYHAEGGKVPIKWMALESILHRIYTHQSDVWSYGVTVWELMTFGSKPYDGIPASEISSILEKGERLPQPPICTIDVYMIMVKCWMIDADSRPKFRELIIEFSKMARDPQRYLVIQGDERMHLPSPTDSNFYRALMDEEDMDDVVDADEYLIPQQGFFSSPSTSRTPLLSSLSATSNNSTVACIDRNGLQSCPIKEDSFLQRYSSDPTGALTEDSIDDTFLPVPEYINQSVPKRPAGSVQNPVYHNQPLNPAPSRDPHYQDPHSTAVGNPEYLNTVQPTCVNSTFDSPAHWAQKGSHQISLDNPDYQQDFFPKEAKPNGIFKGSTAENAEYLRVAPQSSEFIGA
Description: EGFR activity: Ba/F3 cell viability (CellTiter-Glo, 72 h), EGFR exon 20 NPG insertion. The note with it: EGFR exon 20 NPG Ins D770_N771, cell viability, read-out: BaF3 NPG IC50. Background: ATP-based viability assays read luminescence as a measure of living cells.

The target in experiment [2] is T3, Ba/F3 cells with EGFR exon 20 ASV Ins V769_D770 (Homo sapiens, UniProt P00533, INS769ASV).
T3 construct: expressed in transfected cells; host or cells: Ba/F3 (murine pro-B cells), retroviral transduction, puromycin selection, IL3-independent pool
T3 sequence (P00533 with tags, fused parts or gaps INS769ASV): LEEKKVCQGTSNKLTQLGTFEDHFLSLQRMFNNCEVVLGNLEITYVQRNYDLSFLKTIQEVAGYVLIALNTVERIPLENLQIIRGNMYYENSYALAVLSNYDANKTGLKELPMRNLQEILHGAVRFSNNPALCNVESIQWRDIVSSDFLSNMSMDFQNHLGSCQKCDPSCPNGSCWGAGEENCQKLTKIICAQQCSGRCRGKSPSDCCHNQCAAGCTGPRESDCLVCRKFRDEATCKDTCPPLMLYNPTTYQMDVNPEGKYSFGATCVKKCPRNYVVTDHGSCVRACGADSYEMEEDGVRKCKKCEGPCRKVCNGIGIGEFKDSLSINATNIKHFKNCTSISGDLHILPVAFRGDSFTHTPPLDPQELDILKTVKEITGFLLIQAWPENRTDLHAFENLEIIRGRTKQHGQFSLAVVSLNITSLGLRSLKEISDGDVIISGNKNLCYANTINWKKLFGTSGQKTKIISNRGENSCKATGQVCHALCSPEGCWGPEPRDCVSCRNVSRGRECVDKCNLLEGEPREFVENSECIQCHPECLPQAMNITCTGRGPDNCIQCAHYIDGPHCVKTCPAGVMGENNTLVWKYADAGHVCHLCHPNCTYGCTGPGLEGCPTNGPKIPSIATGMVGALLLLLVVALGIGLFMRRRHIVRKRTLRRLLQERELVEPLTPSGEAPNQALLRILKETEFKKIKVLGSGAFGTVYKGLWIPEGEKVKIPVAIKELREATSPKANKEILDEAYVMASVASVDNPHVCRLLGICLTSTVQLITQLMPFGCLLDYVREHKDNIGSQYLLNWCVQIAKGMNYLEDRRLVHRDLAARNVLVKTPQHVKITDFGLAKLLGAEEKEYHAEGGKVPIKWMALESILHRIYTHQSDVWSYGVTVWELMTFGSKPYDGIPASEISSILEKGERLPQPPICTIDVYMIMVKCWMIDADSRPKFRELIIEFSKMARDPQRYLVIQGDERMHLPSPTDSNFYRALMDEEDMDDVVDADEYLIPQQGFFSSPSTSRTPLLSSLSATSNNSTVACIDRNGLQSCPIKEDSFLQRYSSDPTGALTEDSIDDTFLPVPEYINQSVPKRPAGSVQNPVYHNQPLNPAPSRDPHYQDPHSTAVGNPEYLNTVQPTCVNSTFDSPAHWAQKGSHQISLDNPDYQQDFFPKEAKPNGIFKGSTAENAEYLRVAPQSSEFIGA
Description: EGFR activity: Ba/F3 cell viability (CellTiter-Glo, 72 h), EGFR exon 20 ASV insertion. The note with it: EGFR exon 20 ASV Ins V769_D770, cell viability, read-out: BaF3 ASV IC50.

T1 sequence (P00533 25-1210): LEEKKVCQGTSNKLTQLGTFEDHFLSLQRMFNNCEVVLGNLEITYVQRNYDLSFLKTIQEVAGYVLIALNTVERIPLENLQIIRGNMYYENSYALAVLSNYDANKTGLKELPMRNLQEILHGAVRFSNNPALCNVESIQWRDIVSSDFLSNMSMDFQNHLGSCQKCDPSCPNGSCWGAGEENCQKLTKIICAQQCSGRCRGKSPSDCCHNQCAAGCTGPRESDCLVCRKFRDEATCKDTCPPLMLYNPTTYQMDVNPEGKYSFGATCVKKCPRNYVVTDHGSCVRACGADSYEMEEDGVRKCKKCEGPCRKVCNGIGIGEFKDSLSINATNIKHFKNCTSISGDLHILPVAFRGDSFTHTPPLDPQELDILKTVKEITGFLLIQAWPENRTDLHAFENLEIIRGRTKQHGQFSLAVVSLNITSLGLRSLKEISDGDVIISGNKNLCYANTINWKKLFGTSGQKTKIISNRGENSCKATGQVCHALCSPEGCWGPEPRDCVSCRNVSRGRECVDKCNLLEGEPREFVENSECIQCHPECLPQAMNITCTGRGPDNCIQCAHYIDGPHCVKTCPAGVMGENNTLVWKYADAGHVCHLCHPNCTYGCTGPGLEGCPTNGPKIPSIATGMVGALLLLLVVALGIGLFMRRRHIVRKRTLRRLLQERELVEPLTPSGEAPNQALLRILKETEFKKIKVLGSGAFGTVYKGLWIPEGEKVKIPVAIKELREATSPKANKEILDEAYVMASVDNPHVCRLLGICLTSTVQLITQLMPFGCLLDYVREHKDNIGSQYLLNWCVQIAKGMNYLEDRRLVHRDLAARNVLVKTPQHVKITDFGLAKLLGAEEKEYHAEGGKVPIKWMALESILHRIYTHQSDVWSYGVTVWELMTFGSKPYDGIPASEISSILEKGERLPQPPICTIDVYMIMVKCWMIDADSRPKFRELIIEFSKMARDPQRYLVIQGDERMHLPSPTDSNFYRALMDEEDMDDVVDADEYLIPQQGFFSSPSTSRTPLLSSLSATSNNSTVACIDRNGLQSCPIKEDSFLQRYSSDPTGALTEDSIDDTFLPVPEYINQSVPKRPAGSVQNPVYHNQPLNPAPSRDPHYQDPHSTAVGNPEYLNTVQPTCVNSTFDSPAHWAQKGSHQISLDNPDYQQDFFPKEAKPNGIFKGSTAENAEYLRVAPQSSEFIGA

Broadly, the IC50 is the point on the concentration scale where inhibition reaches its midpoint. Turning to `C=CC(=O)N1[C@H](C)CC[C@@H]1C#Cc1cnccc1-c1[nH]c2c(c1Nc1cccc(Cl)c1OC)C(=O)NCC2` [compound 238, 3-[(3-chloro-2-methoxyphenyl)amino]-2-(3-{2-[(2R,5R)-5-methyl-1-(prop-2-enoyl)pyrrolidin-2-yl]ethynyl}pyridin-4-yl)-1H,5H,6H,7H-pyrrolo[3,2-c]pyridin-4-one], the IC50 on Ba/F3 cells with EGFR WT is 100 to 1000 nM; in experiment [1], less than 100 nM; in experiment [2], less than 100 nM.
On to `C=CC(=O)N1CCC[C@]1(C)C#Cc1cnccc1-c1[nH]c2c(c1Nc1cccc(F)c1C)C(=O)NCC2` [compound 304, 3-[(3-fluoro-2-methylphenyl)amino]-2-(3-{2-[(2R)-2-methyl-1-(prop-2-enoyl)pyrrolidin-2-yl]ethynyl}pyridin-4-yl)-1H,5H,6H,7H-pyrrolo[3,2-c]pyridin-4-one], for which the concentration for half-maximal inhibition (IC50) (on Ba/F3 cells with EGFR WT; in experiment [1]; in experiment [2]) was less than 100 nM throughout.
Regarding `COc1c(F)cccc1Nc1c(-c2ccncc2OCCOC2CC2)[nH]c2c1C(=O)NCC2` [Compound 135, 2-(3-(2-cyclopropoxyethoxy)pyridin-4-yl)-3-((3-fluoro-2-methoxyphenyl)amino)-1,5,6,7-tetrahydro-4H-pyrrolo[3,2-c]pyridin-4-one], the half-inhibitory concentration (IC50) (at Ba/F3 cells with EGFR WT; in experiment [1]) was greater than 1000 nM throughout.
For the molecule `C=CC(=O)N1CCOC[C@]1(C)C#Cc1cnccc1-c1[nH]c2c(c1Nc1cccc(Cl)c1OC)C(=O)NCC2` [compound 461], the IC50 on Ba/F3 cells with EGFR WT is 100 to 1000 nM; in experiment [1], less than 100 nM; in experiment [2], less than 100 nM.
In the case of `COc1c(Cl)cccc1Nc1c(-c2ccncc2C#C[C@H]2CN(C)CCO2)[nH]c2c1C(=O)NCC2` [compound 495], the IC50 was 100 to 1000 nM on Ba/F3 cells with EGFR WT, less than 100 nM in experiment [1] and less than 100 nM in experiment [2].
Turning to `C=CC(=O)N1CCOC[C@@]1(C)C#Cc1cnccc1-c1[nH]c2c(c1Nc1cccc(F)c1OC)C(=O)NCC2` [compound 632], the half-maximal inhibitory concentration (IC50) at Ba/F3 cells with EGFR WT was 100 to 1000 nM; in experiment [1], less than 100 nM; in experiment [2], less than 100 nM.
In the case of `COc1c(Cl)cccc1Nc1c(-c2ccncc2C#C[C@@]2(C)CCCN2C(=O)/C=C/CN2CC(F)(F)C2)[nH]c2c1C(=O)NCC2` [compound 603], the IC50 at Ba/F3 cells with EGFR WT was greater than 1000 nM; in experiment [1] it was 100 to 1000 nM; in experiment [2], 100 to 1000 nM.
Take `COc1c(Cl)cccc1Nc1c(-c2ccncc2C#CC2CCCC2)[nH]c2c1C(=O)NCC2` [compound 526]: the values for the IC50 (on Ba/F3 cells with EGFR WT; in experiment [1]; in experiment [2]) were 100 to 1000 nM, less than 100 nM and less than 100 nM, respectively.
For `COc1c(F)cccc1Nc1c(-c2ccncc2C#C[C@H]2CCN2C(=O)/C=C/CN(C)C)[nH]c2c1C(=O)NCC2` [compound 593], the results for the IC50 (at Ba/F3 cells with EGFR WT; in experiment [1]; in experiment [2]) were 100 to 1000 nM, less than 100 nM and less than 100 nM, respectively.
On to `C=CC(=O)N1CC(C)(C)C[C@@H]1C#Cc1cnccc1-c1[nH]c2c(c1Nc1cccc(Cl)c1OC)C(=O)NCC2` [compound 235, 3-[(3-chloro-2-methoxyphenyl)amino]-2-(3-{2-[(2R)-4,4-dimethyl-1-(prop-2-enoyl)pyrrolidin-2-yl]ethynyl}pyridin-4-yl)-1H,5H,6H,7H-pyrrolo[3,2-c]pyridin-4-one], for which the IC50 (at Ba/F3 cells with EGFR WT; in experiment [1]; in experiment [2]) was less than 100 nM throughout.
Regarding `COc1c(F)cccc1Nc1c(-c2ccncc2C#CC(C)(C)OC)[nH]c2c1C(=O)NCC2` [compound 149], the IC50 at Ba/F3 cells with EGFR WT is greater than 1000 nM; in experiment [1], 100 to 1000 nM.
On to `Cc1c(F)cccc1Nc1c(-c2ccncc2C#CC2(C)COC2)[nH]c2c1C(=O)NCC2` [compound 507], for which the 50% inhibitory concentration (IC50) at Ba/F3 cells with EGFR WT is greater than 1000 nM; in experiment [2], 100 to 1000 nM.
Regarding `COc1c(Cl)cccc1Nc1c(-c2ccncc2OC[C@@H]2CCCN2S(C)(=O)=O)[nH]c2c1C(=O)NCC2` [Compound 142a, (S)-3-((3-chloro-2-methoxyphenyl)amino)-2-(3-((1-(methylsulfonyl)pyrrolidin-2-yl)methoxy)pyridin-4-yl)-1,5,6,7-tetrahydro-4H-pyrrolo[3,2-c]pyridin-4-one], the concentration for half-maximal inhibition (IC50) (at Ba/F3 cells with EGFR WT; in experiment [1]) was 100 to 1000 nM in each case.

Values taken from patent US20230364070A1, “PYRROLO[3,2-C]PYRIDIN-4-ONE DERIVATIVES USEFUL IN THE TREATMENT OF CANCER” (Scorpion Therapeutics, Inc., priority 2020, published 2023).
